Results as given in the Deep4Chem optical property database.
Values joined by “and” are separate entries in the source; they are usually repeats but may differ in a detail not shown here. Equal values may be shown once.

assay: solvent given as SMILES; conditions: in Cc1ccccc1

| SMILES | emission maximum |
| --- | --- |
| CCN(CC)c1ccc(/C=C/c2cc(/C=C/c3ccc(N(CC)CC)cc3)nc(N)n2)cc1 | 468 nm |
| CC(C)(C)c1ccc2c(c1)c1cc(C(C)(C)C)ccc1n2-c1ccc(C(=C(C#N)C#N)c2ccc(-n3c4ccc(C(C)(C)C)cc4c4cc(C(C)(C)C)ccc43)cc2)cc1 | 566 nm |
| COc1ccc(C2=[N+]3C(=Nc4c(-c5cc(OC)c(OC)c(OC)c5Br)c(-c5ccc(C(C)(C)C)cc5)c(-c5ccc(OC)cc5)n4[B-]3(F)F)C(c3cc(OC)c(OC)c(OC)c3Br)=C2c2ccc(C(C)(C)C)cc2)cc1 | 740 nm |
| c1ccc(-c2nc(-c3ccccc3)nc(-c3ccc(-n4c5ccccc5c5ccc6c(c7ccccc7n6-c6ccccc6)c54)cc3)n2)cc1 | 466.56 nm and 461 nm |
| COc1cc(OC)cc(C2=[O+][B-](F)(F)OC(c3ccc4ccccc4c3)=C2)c1 | 492.31 nm |
| CC(C)(C)c1ccc(C2=CC(c3ccccc3)=[N+]3C2=Nc2c(-c4ccc(C(C)(C)C)cc4)cc(-c4ccccc4)n2[B-]3(F)F)cc1 | 683 nm |
| COc1ccc(-c2csc(-c3ccncc3)n2)cc1 | 415 nm |
| CCCCCn1c2cc(/C=C/c3ccc(N(c4ccccc4)c4ccccc4)cc3)ccc2c2ccc(/C=C/c3ccc(N(c4ccccc4)c4ccccc4)cc3)cc21 | 451 nm |
| N#CC(C#N)=C(c1ccc(-n2ccc3ccccc32)cc1)c1ccc(-n2ccc3ccccc32)cc1 | 536 nm |
| N#Cc1cc(C#N)cc(-n2c3ccccc3c3cc(-c4ccc5c(c4)c4ccccc4n5-c4cc(C#N)cc(C#N)c4)ccc32)c1 | 470 nm |
| CC(C)(C)c1ccc2c(c1)[nH]c1c3[nH]c4cc(C(C)(C)C)ccc4c3c3nsnc3c21 | 472 nm |
| COc1ccc2c(c1)[nH]c1c3[nH]c4cc(OC)ccc4c3c3nsnc3c21 | 501 nm |
| O=P1(c2ccccc2)c2ccc(N3c4ccccc4Oc4ccccc43)cc2-c2cc(N3c4ccccc4Oc4ccccc43)ccc21 | 535 nm |
| N#Cc1c(-n2c3ccccc3c3ccccc32)cccc1-n1c2ccccc2c2ccccc21 | 403 nm |
| CCOC(=O)c1cc2ccc3ccccc3c2c(C#N)c1N | 461 nm |

same assay, conditions: in ClC(Cl)Cl

| SMILES | emission maximum [nm] |
| --- | --- |
| CCN(CC)c1ccc(/C=C/c2cc(/C=C/c3ccc(N(CC)CC)cc3)nc(N)n2)cc1 | 518 |
| CC(C)(C)c1ccc(C2=CC(c3ccccc3)=[N+]3C2=Nc2c(-c4ccc(C(C)(C)C)cc4)cc(-c4ccccc4)n2[B-]3(F)F)cc1 | 680 |

Next, values leading:

| emission maximum [nm] | SMILES |
| --- | --- |
| 615 | CC(C)(C)c1ccc(Oc2cc3c4c(cc(Oc5ccc(C(C)(C)C)cc5)c5c6c(Oc7ccc(C(C)(C)C)cc7)cc7c8c(cc(Oc9ccc(C(C)(C)C)cc9)c(c2c45)c86)C(=O)OC7=O)C(=O)OC3=O)cc1 |
| 736 | Cc1ccc(/C2=c3\cc/c(o3)=C(\c3ccc(C)cc3)c3ccc([nH]3)-c3ccc4n3[P-](=O)(=O)[N+]3=C(C=CC3=C4c3cccs3)c3ccc2[nH]3)cc1 |
| 618 | Cc1cc(C)c(C2=C3C=CC(c4ccc5ccccc5c4)=[N+]3[B-](F)(F)n3c2ccc3-c2ccc3ccccc3c2)c(C)c1 |
| 411 | N#Cc1cc2ccccc2oc1=O |
| 708 | CN1C(=CC2=C([O-])C(=Cc3sc4ccccc4[n+]3C)C2=C(C#N)C#N)C(C)(C)c2ccccc21 |

same assay, conditions: in ClCCl

| SMILES | emission maximum [nm] |
| --- | --- |
| CC1(C)c2ccccc2N(c2ccc3c(c2)C(C)(C)c2cc(N4c5ccccc5C(C)(C)c5ccccc54)ccc2S3(=O)=O)c2ccccc21 | 504 |
| COc1cc(OC)cc(C2=[O+][B-](F)(F)OC(c3ccc4ccccc4c3)=C2)c1 | 560 |
| COc1ccc(-c2csc(-c3ccncc3)n2)cc1 | 548 |
| CC(C)(C)c1ccc2c(c1)[nH]c1c3[nH]c4cc(C(C)(C)C)ccc4c3c3nsnc3c21 | 502 |
| COc1ccc2c(c1)[nH]c1c3[nH]c4cc(OC)ccc4c3c3nsnc3c21 | 540 |
| COc1ccccc1C1=[N+]2C(=C(c3ccccc3)c3c4c(c(-c5ccccc5OC)n3[B-]2(F)F)C2C=CC4CC2)C2=C1C1C=CC2CC1 (configuration not stated) | 587 |

The remaining lines, values ahead:

| emission maximum [nm] | SMILES |
| --- | --- |
| 454 | C1=Cc2ccc(N(c3ccccc3)c3cccc4ccccc34)cc2C2(c3cc(N(c4ccccc4)c4cccc5ccccc45)ccc31)c1ccccc1-c1ccccc12 |
| 573 | Cc1cc(O)c(C(=O)/C=C/c2ccc(N(C)C)cc2)c(=O)o1 |
| 520 | c1ccc(-c2ccc3c4ccc(-c5ccccc5)c5c(-c6ccccc6)ccc(c6ccc(-c7ccccc7)c2c36)c54)cc1 |
| 389 | COc1cc2c(cc1OC)C1=C[C@H](c3ccccc3)C3(C(C#N)=C(C#N)N1CC2)c1cc(Cl)ccc1-c1ccc(Cl)cc13 |
| 550 | CCCCN(CCCC)c1ccc2c(c1)C#CC#Cc1cc(C(F)(F)F)ccc1C#Cc1cc(c3cc1C#Cc1ccc(C(F)(F)F)cc1C#CC#Cc1cc(N(CCCC)CCCC)ccc1C#C3)C#C2 |
| 543 | Cc1nc(-c2cc(N)ccc2O)n2c1CCCC2 |
| 413 | COc1ccc(-c2cn3ccc[n+]3[n-]2)cc1 |
| 500 | Cc1cc(=O)cc(-c2ccc(-c3nc4ccccn4c3NC3CCCCC3)cc2)o1 |
| 418 | CCn1c2ccccc2c2c(N(c3ccccc3)c3ccccc3)cccc21 |
| 399 | c1cc2ccc3ccc(-n4c5ccccc5c5ccccc54)c4ccc(c1)c2c34 |
| 381 | N#Cc1nc2cnc(N)nc2n1Cc1ccccc1 |
| 434 | COc1ccc(Oc2ccc3c4c(cccc24)C(=O)N(c2c(C(C)C)cccc2C(C)C)C3=O)cc1 |
| 449 | CC(C)(C)c1ccc(-c2cc(-c3ccc(-c4cc(-c5ccc(C(C)(C)C)cc5)c(C(=O)NCc5ccccc5)s4)s3)sc2C(=O)NCc2ccccc2)cc1 |
| 613 | CCCCN1C(=O)C2=C(c3ccc(Br)cc3)[N-]C(=O)C2=C1c1ccc(Br)cc1 |
| 639 | c1ccc(N(c2ccccc2)c2ccc(-c3ccc(-c4ccc(N(c5ccccc5)c5ccccc5)cc4)c4nsnc34)cc2)cc1 |
| 569 | C(=C\c1cnccn1)/c1ccc(N(c2ccccc2)c2ccc(/C=C/c3cnccn3)cc2)cc1 |
| 661 | COc1cc(OC)cc(C2=C3C(C)=C(I)C(C)=[N+]3[B-](F)(F)n3c(/C=C/c4c[nH]c5ccccc45)c(I)c(C)c32)c1 |
| 676 | N#C/C(=C\c1ccc(/C=C/c2ccc(N(c3ccccc3)c3ccccc3)cc2)s1)C(=O)O |

same assay, conditions: in O

| emission maximum [nm] | SMILES |
| --- | --- |
| 390 | N#Cc1ccc2[nH]ccc2c1 |
| 406 | N#Cc1nc2cnc(N)nc2n1Cc1ccccc1 |
| 507.23 | Cc1c(OCC(=O)O)cc2c3c([nH]c2c1C)C(=O)CCC3 |
| 690 | CCN1CCCc2cc3c(cc21)Oc1cc2c(cc1=N3)C(CS(=O)(=O)[O-])CC(C)(C)[N+]=2CCCC(=O)[O-] (configuration not stated) |
| 414 | [O-]c1ccc2ccccc2c1 |

same assay, conditions: in O=P(c1ccccc1)(c1ccccc1)c1ccc2oc3ccc(P(=O)(c4ccccc4)c4ccccc4)cc3c2c1

| SMILES | emission maximum [nm] |
| --- | --- |
| c1ccc(-c2nc(-c3ccccc3)nc(-c3ccc(-n4c5ccccc5c5ccc6c(c7ccccc7n6-c6ccccc6)c54)cc3)n2)cc1 | 479 |

same assay, conditions: in O=P(c1ccccc1)(c1ccccc1)c1ccccc1Oc1ccccc1P(=O)(c1ccccc1)c1ccccc1

| SMILES | emission maximum [nm] |
| --- | --- |
| N#Cc1cc(C#N)cc(-n2c3ccccc3c3cc(-c4ccc5c(c4)c4ccccc4n5-c4cc(C#N)cc(C#N)c4)ccc32)c1 | 470 |
| N#Cc1c(-n2c3ccccc3c3ccccc32)cccc1-n1c2ccccc2c2ccccc21 | 415 |

same assay, conditions: in OCC(F)(F)F

| emission maximum [nm] | SMILES |
| --- | --- |
| 374 | N#Cc1ccc2[nH]ccc2c1 |

same assay, conditions: in c1ccc2c(c1)c1ccccc1n2-c1ccc(-c2ccc(-n3c4ccccc4c4ccccc43)cc2)cc1

| SMILES | emission maximum [nm] |
| --- | --- |
| O=P1(c2ccccc2)c2ccc(N3c4ccccc4Oc4ccccc43)cc2-c2cc(N3c4ccccc4Oc4ccccc43)ccc21 | 551 |

same assay, conditions: in c1ccccc1

| emission maximum [nm] | SMILES |
| --- | --- |
| 503 | CCCCN(CCCC)c1ccc2c(c1)C#CC#Cc1cc(C(F)(F)F)ccc1C#Cc1cc(c3cc1C#Cc1ccc(C(F)(F)F)cc1C#CC#Cc1cc(N(CCCC)CCCC)ccc1C#C3)C#C2 |
